Assay results from patent US20140294905A1, “ANTIMICROBIAL TEXTILES” (BACTOGEN BIYOTEKNOLOJIK URUNLER SANAYI VE TICARET ANONIM …, priority 2011, published 2014).

Experiments:
[1] = system: Penicillium expansum; assay: Modified disc diffusion method; conditions: 25±1° C. for 72 hours
Procedure: (§3) A 100 μl solution containing 10^8 cfu/ml bacteria, 10^6 cfu/ml yeast and 10^4 spores/ml mould is prepared from new cultures and is inoculated respectively onto triptonic soy agar (TSA), Sabouraud Dextrose Agar (SDA) and Potato Dextrose Agar (PDA) through the use of diffusion method. 20 μl of sterile water is dropped onto empty discs and the discs are then dipped into sodium borate in powder format. Discs dipped into sodium borate are then placed on planted petri dishes. As a negative control, blank discs onto which 20 μl of sterile water is dropped are used. As a positive control, Ofloxacin (10 μg/disc) and nystatin (30 μg/disc) are respectively used for bacteria and fungi.
(§4) Planted petri dishes on which modified disc diffusion method is applied are kept at 36±1° C. for 24 hours for bacteria, at 36±1° C. for 48 hours for yeasts and at 25±1° C. for 72 hours for moulds. Antimicrobial activity inhibition zone (a zone where no microorganisms grow) is measured and evaluated for microorganisms tested with modified disc diffusion method. All tests are repeated at least twice.

[2] = system: Candida albicans; assay: Modified disc diffusion method; conditions: 36±1° C. for 48 hours
Procedure: as §3, §4

[3] = system: Candida glabrata; assay: Modified disc diffusion method; conditions: 36±1° C. for 48 hours
Procedure: as §3, §4

[4] = system: Aspergillus niger; assay: Modified disc diffusion method; conditions: 25±1° C. for 72 hours
Procedure: as §3, §4

[5] = system: Penicillium vinaceum; assay: Modified disc diffusion method; conditions: 25±1° C. for 72 hours
Procedure: as §3, §4

[6] = system: Fusarium oxysporum; assay: Modified disc diffusion method; conditions: 25±1° C. for 72 hours
Procedure: as §3, §4

[7] = system: Botrytis cinerea; assay: Modified disc diffusion method; conditions: 25±1° C. for 72 hours
Procedure: as §3, §4

[8] = system: Candida glabrata; assay: Antimicrobial tests of textiles on planted petri dishes; assay type: cell-based; set-up: key: + indicates that (antimicrobial) inhibition zones are observed around the textiles added with sodium borate (FIG. 1-8); conditions: in vitro, 37° C. for 48 hours
Procedure: (§1) Sodium borate-added textiles prepared with three different techniques and the unprocessed textiles to which sodium borate is not added are placed on the petri dishes planted with microorganisms and their antimicrobial efficiency is tested.
(§2) Sodium borate-added textiles fixed with methanol, textiles sprayed with sodium borate dissolved in pH-enhanced water and textiles dyed with water-based textile dye the base of which is prepared by the addition of sodium borate are tested. As a negative control, any possible impact which inhibits the growing of microorganisms on textiles which are not processed is observed. […] Tested antimicrobial activity is evaluated upon the measuring of the inhibition zone of the microorganisms handled. All tests are repeated at least twice.

[9] = system: Penicillium expansum; assay: as above; assay type: cell-based; set-up: key: + indicates that (antimicrobial) inhibition zones are observed around the textiles added with sodium borate (FIG. 1-8); conditions: in vitro, room temperature for 72 hours
Procedure: as §1, §2

[10] = system: Aspergillus niger; assay: as above; assay type: cell-based; set-up: key: + indicates that (antimicrobial) inhibition zones are observed around the textiles added with sodium borate (FIG. 1-8); conditions: in vitro, room temperature for 72 hours
Procedure: as §1, §2

[11] = system: Penicillium vinaceum; assay: as above; assay type: cell-based; set-up: key: + indicates that (antimicrobial) inhibition zones are observed around the textiles added with sodium borate (FIG. 1-8); conditions: in vitro, room temperature for 72 hours
Procedure: as §1, §2

[12] = system: Candida albicans; assay: as above; assay type: cell-based; set-up: key: + indicates that (antimicrobial) inhibition zones are observed around the textiles added with sodium borate (FIG. 1-8); conditions: in vitro, 37° C. for 48 hours
Procedure: as §1, §2

[13] = system: Botrytis cinerea; assay: as above; assay type: cell-based; set-up: key: + indicates that (antimicrobial) inhibition zones are observed around the textiles added with sodium borate (FIG. 1-8); conditions: in vitro, room temperature for 72 hours
Procedure: as §1, §2

[14] = system: Fusarium oxysporum; assay: as above; assay type: cell-based; set-up: key: + indicates that (antimicrobial) inhibition zones are observed around the textiles added with sodium borate (FIG. 1-8); conditions: in vitro, room temperature for 72 hours
Procedure: as §1, §2

[15] = system: Staphylococcus aureus; assay: Modified disc diffusion method; conditions: 36±1° C. for 24 hours
Procedure: as §3, §4

[16] = system: Pseudomonas aeruginosa; assay: Modified disc diffusion method; conditions: 36±1° C. for 24 hours
Procedure: as §3, §4

[17] = system: Escherichia coli; assay: Antimicrobial tests of textiles on planted petri dishes; assay type: cell-based; set-up: key: + indicates that (antimicrobial) inhibition zones are observed around the textiles added with sodium borate (FIG. 1-8); conditions: in vitro, 37° C. for 24 hours
Procedure: as §1, §2

[18] = system: Pseudomonas aeruginosa; assay: as above; assay type: cell-based; set-up: key: + indicates that (antimicrobial) inhibition zones are observed around the textiles added with sodium borate (FIG. 1-8); conditions: in vitro, 37° C. for 24 hours
Procedure: as §1, §2

[19] = system: MRSA; assay: as above; assay type: cell-based; set-up: key: + indicates that (antimicrobial) inhibition zones are observed around the textiles added with sodium borate (FIG. 1-8); conditions: in vitro, 37° C. for 24 hours
Procedure: as §1, §2

[20] = system: Staphylococcus aureus; assay: as above; assay type: cell-based; set-up: key: + indicates that (antimicrobial) inhibition zones are observed around the textiles added with sodium borate (FIG. 1-8); conditions: in vitro, 37° C. for 24 hours
Procedure: as §1, §2

[21] = system: Escherichia coli; assay: Modified disc diffusion method; conditions: 36±1° C. for 24 hours
Procedure: as §3, §4

C[C@@H]1[C@H](O)[C@@H](C)/C=C/C=C/CC/C=C/C=C/C=C/C=C/C(O[C@H]2O[C@H](C)[C@@H](O)[C@H](N)[C@@H]2O)CC2O[C@](O)(CC(O)C(O)CCC(O)CC(O)CC(O)CC(=O)O[C@H]1C)CC(O)C2C(=O)O (stereo partly shown) [Nystatin]
+: Antimicrobial effect (inhibition zone) [1] | Antimicrobial effect (inhibition zone) [2] | Antimicrobial effect (inhibition zone) [3] | Antimicrobial effect (inhibition zone) [4] | Antimicrobial effect (inhibition zone) [5] | Antimicrobial effect (inhibition zone) [6] | Antimicrobial effect (inhibition zone) [7] | Antimicrobial test result (inhibition zone around textile) [8] | Antimicrobial test result (inhibition zone around textile) [9] | Antimicrobial test result (inhibition zone around textile) [10] | Antimicrobial test result (inhibition zone around textile) [11] | Antimicrobial test result (inhibition zone around textile) [12] | Antimicrobial test result (inhibition zone around textile) [13] | Antimicrobial test result (inhibition zone around textile) [14]

CC1COc2c(N3CCN(C)CC3)c(F)cc3c(=O)c(C(=O)O)cn1c23 (stereo not shown) [Ofloxacin]
+: Antimicrobial effect (inhibition zone) [15] | Antimicrobial effect (inhibition zone) [16] | Antimicrobial test result (inhibition zone around textile) [17] | Antimicrobial test result (inhibition zone around textile) [18] | Antimicrobial test result (inhibition zone around textile) [19] | Antimicrobial test result (inhibition zone around textile) [20] | Antimicrobial effect (inhibition zone) [21]

O.O.O.O.O.O.O.O.O.O.[Na+].[Na+].[O-]B1OB2OB([O-])OB(O1)O2 [Sodium Borate, sodium borate]
+: Antimicrobial effect (inhibition zone) [1] | Antimicrobial effect (inhibition zone) [15] | Antimicrobial effect (inhibition zone) [2] | Antimicrobial effect (inhibition zone) [3] | Antimicrobial effect (inhibition zone) [4] | Antimicrobial effect (inhibition zone) [5] | Antimicrobial effect (inhibition zone) [6] | Antimicrobial effect (inhibition zone) [7] | Antimicrobial effect (inhibition zone) [16] | Antimicrobial effect (inhibition zone) [21]
